Patent publication US8461128B2, “Anti-microbial agents and uses thereof” (priority 2005, dated 2013)
≈ marks a conversion by molar mass, not a printed value. Where “and” joins values, the source holds several entries; their conditions need not be identical. Equal entries are not always repeated. Where two headings read alike, the source gives them in different places.

Columns and labels:
YbtE [1] = molecular target: T1, YbtE (Yersinia pestis, UniProt Q56950); assay: biochemical; format: biochemical
T1 sequence (Q56950 1-525): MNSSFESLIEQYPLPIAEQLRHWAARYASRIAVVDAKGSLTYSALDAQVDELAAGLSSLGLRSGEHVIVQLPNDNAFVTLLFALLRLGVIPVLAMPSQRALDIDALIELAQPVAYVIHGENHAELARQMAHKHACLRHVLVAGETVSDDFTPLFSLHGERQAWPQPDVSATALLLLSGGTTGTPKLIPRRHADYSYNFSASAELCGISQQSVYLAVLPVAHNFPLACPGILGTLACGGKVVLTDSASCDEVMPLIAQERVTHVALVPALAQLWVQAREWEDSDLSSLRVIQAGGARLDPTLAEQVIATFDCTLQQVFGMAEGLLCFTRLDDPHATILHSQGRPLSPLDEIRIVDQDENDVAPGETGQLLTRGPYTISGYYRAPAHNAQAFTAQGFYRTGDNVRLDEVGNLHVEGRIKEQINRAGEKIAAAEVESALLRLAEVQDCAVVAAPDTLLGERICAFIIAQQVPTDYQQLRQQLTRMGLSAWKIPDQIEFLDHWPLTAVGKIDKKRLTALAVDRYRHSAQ

M. tuberculosis H37Rv = assay: microbe, parasite or virus in culture; format: cell-based, Mycobacterium tuberculosis
Y. pestis KIM6-2082.1+ = assay: microbe, parasite or virus in culture; format: cell-based, Yersinia pestis
YbtE [2] = molecular target: T1, YbtE; assay: biochemical
YbtE [3] = molecular target: T1, YbtE; conditions: cited from earlier work
[4] = system: MBT production in M. tuberculosis; format: cell-based, Mycobacterium tuberculosis
[5] = Isotopic stability in D2O (NMR); format: physicochemical; conditions: room temperature
[6] = system: M. tuberculosis H37Rv reference strain; conditions: Wanger et al. 1996; cited from earlier work
92 Y. pestis strains = conditions: cited from earlier work
[7] = Mycobacterium tuberculosis, H37RV

SMILES: CC(OS(=O)(=O)NC(=O)c1ccccc1O)[C@H]1O[C@@H](n2cnc3c(N)ncnc32)[C@H](O)[C@@H]1O (mixture of isomers) [(RS)-5′-methyl-salicyl-AMS]
- IC50 (YbtE [1]; IC50): 0.009 µM

SMILES: COc1ccccc1C(=O)NS(=O)(=O)OC[C@H]1O[C@@H](n2cnc3c(N)ncnc32)[C@H](O)[C@@H]1O [2-methoxybenzoyl-AMS]
- IC50 (M. tuberculosis H37Rv; [7]): > 200 µM
- MIC90 (M. tuberculosis H37Rv; [7]): > 200 µM
- IC50 (YbtE [1]; IC50): > 0.08 µM and 0.065 µM

SMILES: CC(=O)Oc1ccccc1C(=O)NS(=O)(=O)OC[C@H]1O[C@@H](n2ccc3ccccc32)[C@H](OC(C)=O)[C@@H]1OC(C)=O [2′,2″,3′-triacetylsalicyl-IRMS]
- IC50 (M. tuberculosis H37Rv): 25 µM and 22 µM and 33 µM and 31 µM and 35 µM
- IC50 (M. tuberculosis H37Rv; [7]): 24 µM
- MIC90 (M. tuberculosis H37Rv; [7]): ~50 µM (≈ 28.7 µg/mL)
- MIC90 (Y. pestis KIM6-2082.1+; Yersinia pestis): ~500 µM (≈ 287 µg/mL)
- IC50 (YbtE [1]; IC50): 1.8 µM

SMILES: CC(=O)O[C@@H]1[C@H](OC(C)=O)[C@@H](COS(=O)(=O)NC(=O)c2ccccc2O)O[C@H]1n1cnc2c(N)ncnc21 [2′,3′-diacetyl-salicyl-AMS]
- MIC90 (M. tuberculosis H37Rv; [7]): > 200 µM

SMILES: CC(=O)O[C@@H]1[C@H](OC(C)=O)[C@@H](COS(=O)(=O)NC(=O)c2ccccc2O)O[C@H]1n1ccc2ccccc21 [2′,3′-diacetylsalicyl-IRMS]
- IC50 (M. tuberculosis H37Rv; [7]): > 200 µM
- MIC90 (M. tuberculosis H37Rv; [7]): > 200 µM
- IC50 (Y. pestis KIM6-2082.1+; Yersinia pestis): > 200 µM
- MIC90 (Y. pestis KIM6-2082.1+; Yersinia pestis): > 200 µM
- IC50 (YbtE [1]; IC50): 3.9 µM

SMILES: Nc1ncnc2c1ncn2[C@@H]1O[C@H](COS(=O)(=O)NC(=O)c2ccc(O)cc2)[C@@H](O)[C@H]1O [4-hydroxybenzoyl-AMS]
- IC50 (M. tuberculosis H37Rv): 110 µM
- IC50 (M. tuberculosis H37Rv; [7]): > 200 µM
- MIC90 (M. tuberculosis H37Rv; [7]): > 200 µM
- IC50 (YbtE [1]; IC50): > 0.08 µM and 6 µM

SMILES: Cc1cccc(O)c1C(=O)NS(=O)(=O)OC[C@H]1O[C@@H](n2cnc3c(N)ncnc32)[C@H](O)[C@@H]1O [6-methylsalicyl-AMS]
- IC50 (YbtE [1]; IC50): 0.023 µM

SMILES: Nc1ncnc2c1ncn2[C@@H]1O[C@H](COS(N)(=O)=O)[C@@H](O)[C@H]1O [AMS, 5′-O-Sulfamoyladenosine, reference compound]
- IC50 (M. tuberculosis H37Rv): 39 µM and 43 µM and 55 µM
- IC50 (M. tuberculosis H37Rv; [7]): 35 µM
- MIC90 (M. tuberculosis H37Rv; [7]): ~100 µM (≈ 34.6 µg/mL)
- inhibition of adenylation (YbtE [2]): did not inhibit adenylation
- inhibition of salicylation (YbtE [1]): did not inhibit salicylation

SMILES: Nc1ncnc2c1ncn2[C@@H]1O[C@H](COP(=O)(O)OP(=O)(O)OP(=O)(O)O)[C@@H](O)[C@H]1O [ATP]
- Km (YbtE [3]; read-out: Km ATP): 350 µM
- Km (YbtE [2]; read-out: Km ATP): 172 µM

SMILES: NS(=O)(=O)OC[C@H]1O[C@@H](n2ccc3ccccc32)[C@H](O)[C@@H]1O [IRMS]
- IC50 (M. tuberculosis H37Rv; [7]): > 200 µM
- MIC90 (M. tuberculosis H37Rv; [7]): > 200 µM
- IC50 (YbtE [1]; IC50): > 20 µM

SMILES: CC(=O)NS(=O)(=O)OC[C@H]1O[C@@H](n2cnc3c(N)ncnc32)[C@H](O)[C@@H]1O [acetyl-AMS]
- IC50 (YbtE [1]; IC50): > 400 µM

SMILES: Nc1ncnc2c1ncn2[C@@H]1O[C@H](COS(=O)(=O)NC(=O)c2ccccc2)[C@@H](O)[C@H]1O [benzoyl-AMS]
- IC50 (M. tuberculosis H37Rv): 105 µM and 133 µM
- MIC90 (M. tuberculosis H37Rv; [7]): > 200 µM
- IC50 (Y. pestis KIM6-2082.1+): 500 µM
- MIC90 (Y. pestis KIM6-2082.1+; Yersinia pestis): > 500 µM
- IC50 (YbtE [1]; IC50): 0.004 µM and 0.012 µM

SMILES: Nc1ncnc2c1nc1n2[C@@H]2O[C@H](COS(=O)(=O)NC(=O)CCCCC1)[C@@H](O)[C@H]2O [cyclo-hexanoyl-AMS]
- IC50 (YbtE [1]; IC50): > 40 µM

SMILES: Nc1ncnc2c1nc1n2[C@@H]2O[C@H](COS(=O)(=O)NC(=O)CCCC#C1)[C@@H](O)[C@H]2O [cyclo-hexynoyl-AMS]
- IC50 (YbtE [1]; IC50): > 40 µM

SMILES: NNC(=O)c1ccncc1 [isoniazid, reference compound]
- IC50 (M. tuberculosis H37Rv): 0.11 µM and 0.08 µM and 0.1 µM
- MIC90 (M. tuberculosis H37Rv): 0.16 µM (≈ 0.0219 µg/mL)
- IC50 (M. tuberculosis H37Rv; [7]): 0.12 µM
- MIC90 (M. tuberculosis H37Rv; [7]): 0.2 µM (≈ 0.0274 µg/mL)

SMILES: Nc1ccc(C(=O)O)c(O)c1 [p-aminosalicylic acid, reference compound]
- IC50 (M. tuberculosis H37Rv): 0.08 µM
- iron-deficient media selectivity (M. tuberculosis H37Rv): do not exhibit iron-deficient media selectivity
- IC50 (M. tuberculosis H37Rv; [7]): 0.09 µM
- MIC90 (M. tuberculosis H37Rv; [7]): 0.78 µM (≈ 0.119 µg/mL)

SMILES: Nc1ncnc2c1ncn2[C@@H]1O[C@H](COS(=O)(=O)NC(=O)c2ccccc2O)[C@@H](O)[C@H]1O [salicyl-AMS, 5′-O—[N-(salicyl)sulfamoyl]-adenosine]
- MBT production [4]: virtually undetectable
- increase of IC50, iron-supplemented vs iron-deficient (M. tuberculosis H37Rv): 18 fold
- MIC (M. tuberculosis H37Rv; Mycobacterium tuberculosis, H37RV, read-out: MIC95, growth inhibition): 268 µM (≈ 125 µg/mL)
- isotopically stable in D2O [5]: ≥ 54 days
- IC50 (YbtE [2]): 0.01 to 0.015 µM
- Kd (YbtE [2]): ≤ 0.001 µM
- Ki (YbtE [2]): 0.00035 ± 0.00027 µM
- slope of IC50 versus YbtE concentration (YbtE [2]): 0.43
- slope of IC50 versus YbtE concentration, corrected (YbtE [2]): 0.52
- IC50 (YbtE [2]; read-out: IC50, inhibition of adenylation activity): 0.0147 ± 0.002 µM
- Ki (YbtE [2]; read-out: Ki (non-competitive with respect to salicylate)): 0.00108 ± 0.00098 µM
- activity on growth (Y. pestis KIM6-2082.1+): not active
- IC50 (Y. pestis KIM6-2082.1+; Yersinia pestis, read-out: IC50, bacterial growth in iron-limiting media): 25 to 52 µM
- IC50 (Y. pestis KIM6-2082.1+; Yersinia pestis, read-out: IC50, growth inhibition): ~50 µM
- MIC (Y. pestis KIM6-2082.1+; Yersinia pestis, read-out: MIC95, growth inhibition): 96.7 µM (≈ 45.1 µg/mL)
- IC50 (Y. pestis KIM6-2082.1+; read-out: IC50, growth inhibition): 51.2 ± 4.7 µM
- IC50 (YbtE [1]; IC50): 0.0145 µM and 0.009 µM
- IC50 (YbtE [1]; read-out: IC50): 0.0479 µM

SMILES: O=C(NS(=O)(=O)OC[C@H]1O[C@@H](n2ccc3ccccc32)[C@H](O)[C@@H]1O)c1ccccc1O [salicyl-IRMS, β-indolyl 5′-O—(N-salicylsulfamoyl)ribose]
- IC50 (M. tuberculosis H37Rv; [7]): > 200 µM
- MIC90 (M. tuberculosis H37Rv; [7]): > 200 µM
- IC50 (Y. pestis KIM6-2082.1+; Yersinia pestis): > 500 µM
- MIC90 (Y. pestis KIM6-2082.1+; Yersinia pestis): > 500 µM
- IC50 (YbtE [1]; IC50): 0.021 µM

SMILES: Nc1ncnc2c1ncn2[C@H]1C[C@H](O)[C@@H](COS(=O)(=O)NC(=O)c2ccccc2O)O1 [salicyl-dAMS]
- IC50 (YbtE [1]; IC50): 0.008 µM and 0.014 µM

SMILES: Nc1ncnc2c1ncn2[C@H]1CC[C@@H](COS(=O)(=O)NC(=O)c2ccccc2O)O1 [salicyl-ddAMS]
- MIC90 (M. tuberculosis H37Rv; [7]): ~200 µM (≈ 86.9 µg/mL)

SMILES: O=C(O)c1ccccc1O [salicylate]
- Km (YbtE [3]; read-out: Km salicylate): 4.6 µM
- Km (YbtE [2]; read-out: Km salicylate): 5.4 µM

SMILES: [H]/N=C(/N)N[C@H]1[C@H](O)[C@@H](O)[C@H](O[C@@H]2O[C@@H](C)[C@](O)(C=O)[C@H]2O[C@@H]2O[C@@H](CO)[C@H](O)[C@@H](O)[C@@H]2NC)[C@@H](N/C(N)=N\[H])[C@@H]1O [streptomycin]
- MIC [6]: 0.4 to 1.7 µM
- MIC (92 Y. pestis strains): 2.6 to 6.9 µM
